From US20160038526A1, “TREATMENT OF PROSTATE CANCER” (THOMAS JEFFERSON UNIVERSITY, priority 2012, published 2016)

Tests used:
[1] = system: HCT116 human liver cancer cells; test: Cell viability assay, HCT116; type: cell-based
Description: (§1) CWR22Rv1 prostate cancer cells were treated with N6BAP or the control compound C5 (Ctrl) at 25 μM concentration or vehicle for 24 h. Following trypan blue exclusion, the attached viable vs. de-attached dead cells were counted. […] The bars indicate mean±SD of triplicate wells. In another assay, CWR22Rv1, LNCaP and DU145 cells were treated with N6BAP, the control compound C5 (Ctrl) or vehicle at indicated concentrations. The fraction of alive cells was determined by MTS ([…]) metabolic activity assay (CellTiter 96® AQueous Assay kit). The results are shown in FIGS. 9C, 9D and 9E, respectively.
The procedure of Example 9 was followed, substituting cells of the following solid tumor cell lines for the cells treated in Example 9: A549 human lung cancer cells, CAPAN human pancreatic cancer cells, T47D human breast cancer cells, […], A2058 human melanoma and COS-7 monkey fibroblast cell lines.

[2] = system: CWR22Rv1 cells; test: Cell viability, MTS metabolic activity assay, CWR22Rv1; type: cell-based, human; conditions: CWR22Rv1, 72 h
Description: as §1

[3] = biological target: T1, Stat5a (Homo sapiens, UniProt P42229); test: Stat5 dimerization assay (FLAG-/MYC-tagged Stat5a co-immunoprecipitation) in PC-3 cells; type: cell-based; design: expressed in transfected cells; host or cells: PC-3; conditions: 2 hours pretreatment, hPrl 10 nM 30 minutes
T1 sequence (P42229 1-794): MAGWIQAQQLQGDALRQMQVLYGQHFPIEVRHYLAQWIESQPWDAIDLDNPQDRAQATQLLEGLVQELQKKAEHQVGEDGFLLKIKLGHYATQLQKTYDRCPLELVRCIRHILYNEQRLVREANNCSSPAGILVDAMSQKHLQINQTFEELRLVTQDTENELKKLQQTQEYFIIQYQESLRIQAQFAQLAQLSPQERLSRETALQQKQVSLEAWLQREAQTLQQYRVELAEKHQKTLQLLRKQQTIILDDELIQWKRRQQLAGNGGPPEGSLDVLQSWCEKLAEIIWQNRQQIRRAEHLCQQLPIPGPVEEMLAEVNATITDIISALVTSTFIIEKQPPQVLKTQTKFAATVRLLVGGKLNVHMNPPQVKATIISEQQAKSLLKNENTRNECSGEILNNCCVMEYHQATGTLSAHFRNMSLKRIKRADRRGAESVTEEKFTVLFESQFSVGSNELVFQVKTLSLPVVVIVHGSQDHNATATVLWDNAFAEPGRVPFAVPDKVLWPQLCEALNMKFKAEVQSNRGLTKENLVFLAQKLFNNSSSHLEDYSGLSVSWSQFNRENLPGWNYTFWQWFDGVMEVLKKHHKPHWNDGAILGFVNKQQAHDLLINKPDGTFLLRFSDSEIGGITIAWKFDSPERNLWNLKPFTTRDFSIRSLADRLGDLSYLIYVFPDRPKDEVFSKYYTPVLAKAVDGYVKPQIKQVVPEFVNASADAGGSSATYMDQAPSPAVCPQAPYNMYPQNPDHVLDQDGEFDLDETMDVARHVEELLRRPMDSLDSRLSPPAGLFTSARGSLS
Description: FLAG-tagged Stat5a and MYC-tagged Stat5a were generated as follows. Plasmid pCMV3-FLAG-Stat5a, pCMV3-MYC-Stat5a and pPrlR were co-transfected using FuGENE6 (Roche) into PC-3 cells (2 μg of each plasmid per 1×10^7 cells). The cells were starved for 20 hours, pretreated with N6BAP for 2 hours, then stimulated with hPrl (10 nM) in RPMI 1640 without serum for 30 minutes. The cell lysates were immunoprecipitated with 25 μl anti-FLAG M2 […] affinity gel (2 μg/ml, Sigma), anti-MYC pAb (1 μg/ml, Upstate) or normal rabbit serum (NRS). The primary antibodies were used in the immunoblottings at the following concentrations: anti-FLAG pAb (1:1000; Stratagene), anti-MYC mAb (1:1000; Sigma), anti-Stat5a/b mAb (1:250) (Transduction Laboratories) detected by horseradish peroxidase-conjugated secondary antibodies.
Lanes 1, 2, 4, 6, 8, 10, 12, 14 and 16 represent cells stimulated with human prolactin (Prl) for 30 minutes which induces dimerization of Stat5. Two hours prior to Prl-stimulation, the cells had been treated with DMSO (lanes 1-4), the control compound C5 (lanes 5 and 6) or N6BAP (lanes 7-16) to test whether the Stat5a/b-inhibitor compound, N6BAP, would be able to inhibit dimerization of Stat5. […] It should be noted the drug effect in this study was not due to cell apoptosis induction, as the treatment time was only 2 hours. […]

[4] = biological target: T1, Stat5a; test: Stat5a translocation to the nucleus in PC3 cells (immunofluorescence); type: cell-based; design: expressed in transfected cells; host or cells: PC-3 (human prostate cancer cell line); conditions: 2 hours pretreatment, 10 nmol/L Prl 30 minutes
Description: PC3 cells were infected with Ade-Stat5a and Ade-PrlR at MOI 5 for each adenovirus. Cells were pretreated with N6BAP or vehicle (DMSO) for 2 hours and then stimulated with 10 nmol/L Prl for 30 minutes. Cells were fixed with 100% methanol for 15 min and subsequently permeabilized with 0.1% Triton X-100 in PBS (pH 7.4). After blocking with 2% bovine serum albumin in PBS, cells were incubated with an antibody specific for Stat5a or Stat5b at 4° C. for 2 hours. Cells were then washed with PBS and incubated with FITC-conjugated secondary antibody (Jackson ImmunoResearch) at room temperature for 1 hour. The images were taken by using an inverted fluorescence microscopy (Carl Zeiss). […] It should be noted the drug effect in this study was not due to cell apoptosis induction, as the treatment time was only 2 hours. Treatment of at least 48 hours is required for the compound to induce prostate cancer cell apoptosis.

[5] = system: CWR22Rv1 cells; test: Nucleosomal DNA fragmentation (nucleosomal ELISA) in CWR22Rv1 cells; type: cell-based, human; conditions: 24 μM N6BAP
[6] = system: DU145 cells; test: Cell viability, MTS metabolic activity assay, DU145; type: cell-based, human; conditions: DU145, 72 hours
Description: as §1

Compound: O=P(O)(O)OC[C@H]1O[C@@H](n2cnc3c(NCc4ccccc4)ncnc32)[C@H](O)[C@@H]1O [N6BAP, N^6-benzyladenosine-5′-monophosphate]
- cell viability [1]: did not affect the viability
- number of viable cells [2]: decreases the number of viable cells
- dimerization of Stat5a [3]: effectively inhibited Stat5a dimerization
- translocation of Stat5a to the nucleus [4]: blocks translocation of Stat5a to the nucleus
- DNA fragmentation (apoptosis) [5]: N6BAP-induced DNA fragmentation
- number of viable cells [6]: decreases the number of viable cells
